The source of these data is patent US10758534B2 (Vertex Pharmaceuticals Incorporated, priority 2014, dated 2020).

The structures appear in SMILES notation.

T1 sequence (P13569 with tags, fused parts or gaps DEL508-508): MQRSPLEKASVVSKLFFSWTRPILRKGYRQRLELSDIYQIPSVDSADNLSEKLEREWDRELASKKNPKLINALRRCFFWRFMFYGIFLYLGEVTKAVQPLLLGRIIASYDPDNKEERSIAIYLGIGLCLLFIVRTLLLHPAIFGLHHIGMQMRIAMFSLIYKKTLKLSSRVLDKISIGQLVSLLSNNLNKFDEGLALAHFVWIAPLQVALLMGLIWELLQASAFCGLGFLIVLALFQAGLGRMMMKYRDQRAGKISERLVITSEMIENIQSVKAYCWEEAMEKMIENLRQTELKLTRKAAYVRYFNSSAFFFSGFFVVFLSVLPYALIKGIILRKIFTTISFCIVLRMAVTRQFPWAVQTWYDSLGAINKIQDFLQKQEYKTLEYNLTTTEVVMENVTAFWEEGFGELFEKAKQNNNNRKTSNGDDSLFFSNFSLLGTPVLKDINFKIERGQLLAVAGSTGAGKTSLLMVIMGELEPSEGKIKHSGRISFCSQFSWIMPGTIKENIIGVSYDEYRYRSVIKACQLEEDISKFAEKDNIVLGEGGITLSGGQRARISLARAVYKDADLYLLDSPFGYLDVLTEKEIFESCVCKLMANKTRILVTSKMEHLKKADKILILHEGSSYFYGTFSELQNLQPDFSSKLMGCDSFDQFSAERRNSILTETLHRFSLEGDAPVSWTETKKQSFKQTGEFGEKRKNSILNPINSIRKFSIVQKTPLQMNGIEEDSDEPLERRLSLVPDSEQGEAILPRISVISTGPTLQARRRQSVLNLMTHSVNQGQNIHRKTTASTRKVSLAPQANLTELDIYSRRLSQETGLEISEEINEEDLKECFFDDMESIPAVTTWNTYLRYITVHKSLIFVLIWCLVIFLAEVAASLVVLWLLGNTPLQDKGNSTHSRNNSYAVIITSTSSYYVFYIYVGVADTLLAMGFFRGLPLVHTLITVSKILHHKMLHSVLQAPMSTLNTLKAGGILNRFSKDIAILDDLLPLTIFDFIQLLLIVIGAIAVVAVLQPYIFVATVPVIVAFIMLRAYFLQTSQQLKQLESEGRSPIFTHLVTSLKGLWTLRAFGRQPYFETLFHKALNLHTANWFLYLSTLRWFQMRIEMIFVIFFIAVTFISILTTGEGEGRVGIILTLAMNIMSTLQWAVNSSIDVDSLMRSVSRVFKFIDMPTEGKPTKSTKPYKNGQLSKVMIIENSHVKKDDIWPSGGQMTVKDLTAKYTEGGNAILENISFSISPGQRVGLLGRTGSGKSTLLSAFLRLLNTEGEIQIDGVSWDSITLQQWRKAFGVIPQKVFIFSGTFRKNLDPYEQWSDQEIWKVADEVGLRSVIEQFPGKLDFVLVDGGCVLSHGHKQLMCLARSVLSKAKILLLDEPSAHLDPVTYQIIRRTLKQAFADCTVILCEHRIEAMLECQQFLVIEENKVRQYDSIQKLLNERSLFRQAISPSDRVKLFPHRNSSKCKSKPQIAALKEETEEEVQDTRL

The first test has as its target T1, F508del (Homo sapiens, UniProt P13569, DEL508-508).
T1 construct: expressed in transfected cells
Description: Protocol 2: FRET membrane potential optical assay (VIPR), identification of correction compounds. Particulars: F508del CFTR modulator activity; compounds of Table 1. Format: cell-based. Put shortly:
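Single-addition HTS format: F508del-expressing NIH3T3 cells pre-incubated 16 hrs at 37° C. ± compound, with 27° C. culture as positive control. Channel activation by forskolin 10 μM and genistein 20 μM upon switch to gluconate bath, pH 7.4; read-out is FRET-based depolarization signal.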
In the case of `CC(C)COc1cc(F)cc(-c2ccc(C(=O)NS(=O)(=O)c3cccc(N)n3)c(C3=CC(C)CC3(C)C)n2)c1` (single isomer, unassigned) [Compound 2081, N-[(6-amino-2-pyridyl)sulfonyl]-6-(3-fluoro-5-isobutoxy-phenyl)-2-(3,5,5-trimethylcyclopenten-1-yl)pyridine-3-carboxamide], the EC30 entry was “+++ (“+++” means <3 uM)”.
On the same count and under the same terms, as for `CC(C)COc1cc(F)cc(-c2ccc(C(=O)NS(=O)(=O)c3cccc(N)n3)c(C3CC(C)(C)CC3(C)C)n2)c1` (single isomer, unassigned) [Compound 2492, N-[(6-amino-2-pyridyl)sulfonyl]-6-(3-fluoro-5-isobutoxy-phenyl)-2-(2,2,4,4-tetramethylcyclopentyl)pyridine-3-carboxamide], the entry is “+++ (“+++” means <3 uM)”.

Still in this test, the particulars now being: F508del CFTR modulator activity; compounds of Table 1; read-out: EC30.
Turning to `CC(C)COc1cc(F)cc(-c2ccc(C(=O)NS(=O)(=O)c3cccc(N)n3)c(N3CCC(C)CC(C)C3)n2)c1` (centres unmarked) [Compound 2479, N-[(6-amino-2-pyridyl)sulfonyl]-2-(3,5-dimethylazepan-1-yl)-6-(3-fluoro-5-isobutoxy-phenyl)pyridine-3-carboxamide], the EC30 was under 3 µM.
As to `C[C@@H]1CN(c2nc(-c3ccc(O[C@@H](C)CO)nc3)ccc2C(=O)NS(=O)(=O)c2cccnc2N)C(C)(C)C1` [Compound 2687], the EC30 was in the range of 3 to 10 µM.
As for `CC1CN(c2ncccc2C(=O)NS(=O)(=O)c2cccc(OCc3cccc4c3OCO4)n2)C(C)(C)C1` (centres unmarked) [Compound 2249, N—[[6-(1,3-benzodioxol-4-ylmethoxy)-2-pyridyl]sulfonyl]-2-(2,2,4-trimethylpyrrolidin-1-yl)pyridine-3-carboxamide], the EC30 was under 3 µM.
On the same count and under the same terms, as for `COc1ccc(-c2ccc(C(=O)NS(=O)(=O)c3cccnc3N)c(N3C[C@@H](C)CC3(C)C)n2)cc1` [Compound 2667, N-[(2-amino-3-pyridyl)sulfonyl]-6-(4-methoxyphenyl)-2-[(4S)-2,2,4-trimethylpyrrolidin-1-yl]pyridine-3-carboxamide], the figure is under 3 µM; as for `Cc1ccc(-c2ccc(C(=O)NS(=O)(=O)N3CC[C@H](N)C3)c(N3C[C@@H](C)CC3(C)C)n2)cc1F` [Compound 2587, N-[(3S)-3-aminopyrrolidin-1-yl]sulfonyl-6-(3-fluoro-4-methyl-phenyl)-2-[(4S)-2,2,4-trimethylpyrrolidin-1-yl]pyridine-3-carboxamide], 3 to 10 µM.
As to `CC1CN(c2ncccc2C(=O)NS(=O)(=O)c2cccc(Oc3cc(F)ccc3Cl)n2)C(C)(C)C1` (centres unmarked) [Compound 2591, N—[[6-(2-chloro-5-fluoro-phenoxy)-2-pyridyl]sulfonyl]-2-(2,2,4-trimethylpyrrolidin-1-yl)pyridine-3-carboxamide], the EC30 was under 3 µM.
Still for that read-out and setting: as for `CC1CN(c2ncccc2C(=O)NS(=O)(=O)c2cccc(N3CCN(Cc4ccncc4)CC3)n2)C(C)(C)C1` (centres unmarked) [Compound 2175, N—[[6-[4-(4-pyridylmethyl)piperazin-1-yl]-2-pyridyl]sulfonyl]-2-(2,2,4-trimethylpyrrolidin-1-yl)pyridine-3-carboxamide], the figure is 3 to 10 µM; as for `CC1CN(c2nc(-n3ccc(OCC(C)(C)C)n3)ccc2C(=O)NS(=O)(=O)c2cccnc2N)C2(CCC2)C1` (single isomer, unassigned) [Compound 2358, N-[(2-amino-3-pyridyl)sulfonyl]-6-[3-(2,2-dimethylpropoxy)pyrazol-1-yl]-2-[6-methyl-8-azaspiro[3.4]octan-8-yl]pyridine-3-carboxamide], under 3 µM.
On the same count and under the same terms, as for `CC(=O)c1ccc(Oc2cccc(S(=O)(=O)NC(=O)c3cccnc3N3CC(C)CC3(C)C)n2)cc1` (centres unmarked) [Compound 2730], the figure is 3 to 10 µM.
For `CC(C)c1ccc(-c2ccc(C(=O)NS(=O)(=O)c3ccc[nH]c3=O)c(N3C[C@@H](C)CC3(C)C)n2)cc1` [Compound 2483, 6-(4-isopropylphenyl)-N-[(2-oxo-1H-pyridin-3-yl)sulfonyl]-2-[(4S)-2,2,4-trimethylpyrrolidin-1-yl]pyridine-3-carboxamide], the EC30 was under 3 µM.
`CC1CN(c2ncccc2C(=O)NS(=O)(=O)c2cccc(OCC3(C)CC3)n2)C(C)(C)C1` (centres unmarked) [Compound 2434, N—[[6-[(1-methylcyclopropyl)methoxy]-2-pyridyl]sulfonyl]-2-(2,2,4-trimethylpyrrolidin-1-yl)pyridine-3-carboxamide]: the EC30 was under 3 µM.

The same test, now with this note: Table 3; compounds of Table 1 as modulators of CFTR activity; protocol not stated.
For `Cc1cccc(C)c1Cn1nc(-c2ccc(Cl)cc2)cc1C(=O)NS(=O)(=O)c1ccccc1` [Compound 28, N-(benzenesulfonyl)-5-(4-chlorophenyl)-2-[(2,6-dimethylphenyl)methyl]pyrazole-3-carboxamide], the concentration for an effect of 30% (EC30) result was “+++ (“+++” means <3 uM)”.
On the same count and under the same terms, as for `CC(C)(C)c1cc(C(=O)NS(=O)(=O)c2ccccc2)n(Cc2cc(F)ccc2C(F)(F)F)n1` [Compound 3, 3-(tert-butyl)-1-(5-fluoro-2-(trifluoromethyl)benzyl)-N-(phenylsulfonyl)-1H-pyrazole-5-carboxamide], the entry is “+++ (“+++” means <3 uM)”; as for `COc1ncccc1S(=O)(=O)NC(=O)C1c2cccc(-c3ccccc3)c2CN1Cc1c(C)cc(C)cc1C` (centres unmarked) [Compound 427, N-[(2-methoxy-3-pyridyl)sulfonyl]-4-phenyl-2-[(2,4,6-trimethylphenyl)methyl]isoindoline-1-carboxamide], “+++ (“+++” means <3 uM)”; as for `CC(C)Oc1ccc(-c2ccc(C(=O)NS(=O)(=O)c3cccc(N)n3)c(N3CC[C@H](C)[C@H]3C)n2)cn1` [Compound 764, N-[(6-amino-2-pyridyl)sulfonyl]-2-[(2R,3S)-2,3-dimethylpyrrolidin-1-yl]-6-(6-isopropoxy-3-pyridyl)pyridine-3-carboxamide], “+++ (“+++” means <3 uM)”.
On the same count and under the same terms, as for `Cc1cc(C)c(Oc2nc(-c3cccc(OCC(C)C)c3)ccc2C(=O)NS(=O)(=O)c2cccc(N)n2)c(C)c1` [Compound 8, N-[(6-amino-2-pyridyl)sulfonyl]-6-(3-isobutoxyphenyl)-2-(2,4,6-trimethylphenoxy)pyridine-3-carboxamide], the entry is “+++ (“+++” means <3 uM)”.
Take `Cc1cc(C)c(Oc2nc(-c3c(C)cccc3C)ccc2C(=O)NS(=O)(=O)c2cccc(N)n2)c(C)c1` [Compound 97, N-[(6-amino-2-pyridyl)sulfonyl]-6-(2,6-dimethylphenyl)-2-(2,4,6-trimethylphenoxy)pyridine-3-carboxamide]: the EC30 entry was “+++ (“+++” means <3 uM)”.
Take `CC(C)Oc1ccc(-c2ccc(C(=O)NS(=O)(=O)c3cccc(N)n3)c(N(C)CC3CC3)n2)cn1` [Compound 740, N-[(6-amino-2-pyridyl)sulfonyl]-2-[cyclopropylmethyl(methyl)amino]-6-(6-isopropoxy-3-pyridyl)pyridine-3-carboxamide]: the EC30 result is “++ (“++” means between 3 uM and 10 uM)”.
In the case of `C[C@@H]1CC[C@H](C)N1c1nc(-c2ccc(OCC3CC3)nc2)ccc1C(=O)NS(=O)(=O)c1cccc(N)n1` [Compound 789, N-[(6-amino-2-pyridyl)sulfonyl]-6-[6-(cyclopropylmethoxy)-3-pyridyl]-2-[(2S,5R)-2,5-dimethylpyrrolidin-1-yl]pyridine-3-carboxamide], the EC30 result is given as “+++ (“+++” means <3 uM)”.
With `Cc1cc(C)c(Oc2nc(-c3ccc(F)c(F)c3)ccc2C(=O)NS(=O)(=O)c2cccc(N)n2)c(C)c1` [Compound 725, N-[(6-amino-2-pyridyl)sulfonyl]-6-(3,4-difluorophenyl)-2-(2,4,6-trimethylphenoxy)pyridine-3-carboxamide], the EC30 entry is given as “+++ (“+++” means <3 uM)”.
As to `C[C@@H]1CC[C@H](C)N1c1nc(-c2ccc(OCC3(C)CC3)nc2)ccc1C(=O)NS(=O)(=O)c1cccc(N)n1` [Compound 454, N-[(6-amino-2-pyridyl)sulfonyl]-2-[(2S,5R)-2,5-dimethylpyrrolidin-1-yl]-6-[6-[(1-methylcyclopropyl)methoxy]-3-pyridyl]pyridine-3-carboxamide], the EC30 entry is “+++ (“+++” means <3 uM)”.
Regarding `CC(C)COc1cc(F)cc(-c2ccc(C(=O)NS(=O)(=O)c3cccc(N)n3)c(OC(C)c3cccc(F)c3)n2)c1` (centres unmarked) [Compound 562, N-[(6-amino-2-pyridyl)sulfonyl]-6-(3-fluoro-5-isobutoxy-phenyl)-2-[1-(3-fluorophenyl)ethoxy]pyridine-3-carboxamide], the EC30 entry is “+++ (“+++” means <3 uM)”.
The same measure, in the same setting: as for `Cc1cc(C#N)cc(C)c1Oc1nc(C(C)(C)C)ccc1C(=O)NS(=O)(=O)c1cccc(N)c1` [Compound 111, N-(3-aminophenyl)sulfonyl-6-tert-butyl-2-(4-cyano-2,6-dimethyl-phenoxy)pyridine-3-carboxamide], the entry is “+++ (“+++” means <3 uM)”.
The same measure, in the same setting: as for `CC(C)COc1cc(F)cc(-c2ccc(C(=O)NS(=O)(=O)c3cccc(N)n3)c(OC3C(C)CCC3C)n2)c1` (centres unmarked) [Compound 416, N-[(6-amino-2-pyridyl)sulfonyl]-2-(2,5-dimethylcyclopentoxy)-6-(3-fluoro-5-isobutoxy-phenyl)pyridine-3-carboxamide], the entry is “+++ (“+++” means <3 uM)”; as for `Cc1cccc(C)c1Cn1nc(C(C)(C)C)cc1C(=O)NS(=O)(=O)c1ccsc1` [Compound 603, 5-tert-butyl-2-[(2,6-dimethylphenyl)methyl]-N-(3-thienylsulfonyl)pyrazole-3-carboxamide], “+++ (“+++” means <3 uM)”; as for `Cc1cc(C)c(CN2Cc3c(C(C)C)cccc3C2C(=O)NS(=O)(=O)c2cccc(N)c2)c(C)c1` (centres unmarked) [Compound 299, N-(3-aminophenyl)sulfonyl-4-isopropyl-2-[(2,4,6-trimethylphenyl)methyl]isoindoline-1-carboxamide], “+++ (“+++” means <3 uM)”.
Same read-out and setting: as for `Cc1cc(C)c(Oc2nc(-c3cnn(CC(C)C)c3)ccc2C(=O)NS(=O)(=O)c2cc[nH]n2)c(C)c1` [Compound 577, 6-(1-isobutylpyrazol-4-yl)-N-(1H-pyrazol-3-ylsulfonyl)-2-(2,4,6-trimethylphenoxy)pyridine-3-carboxamide], the entry is “++ (“++” means between 3 uM and 10 uM)”.

One may read the EC30 as the point of the concentration-response curve where the effect stands at 30%.
